Measurements reported in ChEMBL document CHEMBL3991601, “The target landscape of clinical kinase drugs” (Science, 2017).
Active and inactive are the calls of the source. For most assays here, no stated cut-off is given here; in the data, actives have a measured Kd and inactives only a lower limit.

Key:
[1] = target: Tyrosine-protein kinase Fyn (Homo sapiens, UniProt P06241)
[2] = target: T1, EKC/KEOPS complex subunit TP53RK (Homo sapiens, UniProt Q96S44)
T1 sequence (Q96S44 whole entry): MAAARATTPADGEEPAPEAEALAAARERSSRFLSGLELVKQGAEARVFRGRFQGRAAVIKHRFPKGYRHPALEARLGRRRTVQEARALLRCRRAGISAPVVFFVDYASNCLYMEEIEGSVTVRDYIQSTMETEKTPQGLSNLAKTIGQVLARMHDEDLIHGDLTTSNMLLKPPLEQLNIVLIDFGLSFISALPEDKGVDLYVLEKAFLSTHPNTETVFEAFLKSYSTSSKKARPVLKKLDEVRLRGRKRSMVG

[3] = target: T2, Serine/threonine-protein kinase TAO2 (Homo sapiens, UniProt Q9UL54)
T2 sequence (Q9UL54 whole entry): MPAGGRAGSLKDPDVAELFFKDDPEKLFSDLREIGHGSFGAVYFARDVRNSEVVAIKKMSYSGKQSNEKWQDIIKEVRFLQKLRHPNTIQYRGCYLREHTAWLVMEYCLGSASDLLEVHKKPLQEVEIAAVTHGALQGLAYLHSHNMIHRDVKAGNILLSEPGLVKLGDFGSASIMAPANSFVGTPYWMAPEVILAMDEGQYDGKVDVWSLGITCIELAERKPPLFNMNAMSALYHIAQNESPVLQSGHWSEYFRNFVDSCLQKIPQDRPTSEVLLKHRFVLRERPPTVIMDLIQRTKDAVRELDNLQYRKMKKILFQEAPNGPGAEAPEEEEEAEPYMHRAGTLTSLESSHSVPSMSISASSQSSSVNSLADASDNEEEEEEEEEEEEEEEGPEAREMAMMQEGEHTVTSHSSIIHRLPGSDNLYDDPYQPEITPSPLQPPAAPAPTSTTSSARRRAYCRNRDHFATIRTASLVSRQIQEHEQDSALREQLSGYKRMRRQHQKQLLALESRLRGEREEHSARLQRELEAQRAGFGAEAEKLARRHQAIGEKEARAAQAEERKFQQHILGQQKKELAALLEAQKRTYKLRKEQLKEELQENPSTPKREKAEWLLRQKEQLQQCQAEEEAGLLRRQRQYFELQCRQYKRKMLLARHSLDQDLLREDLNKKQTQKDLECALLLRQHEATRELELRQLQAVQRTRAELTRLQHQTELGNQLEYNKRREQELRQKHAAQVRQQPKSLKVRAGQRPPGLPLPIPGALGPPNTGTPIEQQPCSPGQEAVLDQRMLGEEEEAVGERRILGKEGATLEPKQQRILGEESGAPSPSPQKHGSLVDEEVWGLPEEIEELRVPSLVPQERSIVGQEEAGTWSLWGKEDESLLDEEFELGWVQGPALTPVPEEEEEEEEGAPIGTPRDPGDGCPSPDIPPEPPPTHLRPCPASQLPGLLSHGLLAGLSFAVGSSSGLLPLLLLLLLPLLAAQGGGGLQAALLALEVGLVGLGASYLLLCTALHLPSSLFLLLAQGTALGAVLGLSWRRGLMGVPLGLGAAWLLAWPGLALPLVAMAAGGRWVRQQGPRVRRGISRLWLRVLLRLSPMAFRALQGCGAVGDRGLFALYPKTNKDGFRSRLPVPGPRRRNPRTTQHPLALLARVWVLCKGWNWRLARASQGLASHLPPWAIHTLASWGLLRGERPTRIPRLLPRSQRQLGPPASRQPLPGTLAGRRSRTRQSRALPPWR

[4] = target: Bone morphogenetic protein receptor type-1A (Homo sapiens, UniProt P36894)
[5] = target: Ribosomal protein S6 kinase alpha-5 (Homo sapiens, UniProt O75582)
[6] = target: T3, STE20-related kinase adapter protein alpha (Homo sapiens, UniProt Q7RTN6)
T3 sequence (Q7RTN6 whole entry): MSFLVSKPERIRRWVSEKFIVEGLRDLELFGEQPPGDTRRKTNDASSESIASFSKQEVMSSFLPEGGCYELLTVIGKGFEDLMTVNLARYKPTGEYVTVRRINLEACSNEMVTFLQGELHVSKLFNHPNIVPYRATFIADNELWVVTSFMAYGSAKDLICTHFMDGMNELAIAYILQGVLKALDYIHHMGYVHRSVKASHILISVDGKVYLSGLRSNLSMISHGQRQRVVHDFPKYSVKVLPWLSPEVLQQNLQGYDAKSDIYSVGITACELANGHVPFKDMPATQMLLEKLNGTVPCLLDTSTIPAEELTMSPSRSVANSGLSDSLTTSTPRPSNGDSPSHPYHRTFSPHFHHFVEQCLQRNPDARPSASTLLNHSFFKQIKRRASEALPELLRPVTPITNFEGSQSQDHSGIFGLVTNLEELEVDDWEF

[7] = target: Protein-tyrosine kinase 2-beta (Homo sapiens, UniProt Q14289)
[8] = target: STE20-like serine/threonine-protein kinase (Homo sapiens, UniProt Q9H2G2)
[9] = target: Tyrosine-protein kinase FRK (Homo sapiens, UniProt P42685)
[10] = target: Putative heat shock protein HSP 90-beta 2 (Homo sapiens, UniProt Q58FF8)
[11] = target: Casein kinase I isoform alpha (Homo sapiens, UniProt P48729)
[12] = target: S-adenosylmethionine synthase isoform type-2 (Homo sapiens, UniProt P31153)

Measured: Kd

Chain of Casein kinase I isoform alpha (P48729 whole entry, canonical isoform): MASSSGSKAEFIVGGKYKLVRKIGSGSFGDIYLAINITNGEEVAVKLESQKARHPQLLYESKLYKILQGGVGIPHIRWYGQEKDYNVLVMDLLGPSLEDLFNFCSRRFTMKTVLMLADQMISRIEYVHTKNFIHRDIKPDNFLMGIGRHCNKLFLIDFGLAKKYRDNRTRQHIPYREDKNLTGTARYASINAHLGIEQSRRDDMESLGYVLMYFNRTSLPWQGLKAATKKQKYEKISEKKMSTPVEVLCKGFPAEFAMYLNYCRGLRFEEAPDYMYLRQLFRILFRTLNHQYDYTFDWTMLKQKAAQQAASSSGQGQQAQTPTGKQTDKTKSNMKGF
Chain of Tyrosine-protein kinase Fyn (P06241 whole entry): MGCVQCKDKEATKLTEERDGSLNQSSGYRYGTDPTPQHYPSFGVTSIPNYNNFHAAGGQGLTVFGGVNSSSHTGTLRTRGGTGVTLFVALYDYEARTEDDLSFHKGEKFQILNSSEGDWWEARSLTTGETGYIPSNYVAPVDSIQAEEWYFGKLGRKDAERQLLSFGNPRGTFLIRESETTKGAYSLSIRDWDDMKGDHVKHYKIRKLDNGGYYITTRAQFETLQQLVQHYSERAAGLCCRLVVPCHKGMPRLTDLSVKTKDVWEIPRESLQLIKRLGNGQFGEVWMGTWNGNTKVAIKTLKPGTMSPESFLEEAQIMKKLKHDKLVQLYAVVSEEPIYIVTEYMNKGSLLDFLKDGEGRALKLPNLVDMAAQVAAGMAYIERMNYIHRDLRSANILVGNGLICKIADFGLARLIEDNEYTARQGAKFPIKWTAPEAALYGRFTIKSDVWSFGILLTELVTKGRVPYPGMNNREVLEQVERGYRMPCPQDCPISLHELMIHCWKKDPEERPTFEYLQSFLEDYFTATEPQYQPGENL
Chain of Tyrosine-protein kinase FRK (P42685 whole entry): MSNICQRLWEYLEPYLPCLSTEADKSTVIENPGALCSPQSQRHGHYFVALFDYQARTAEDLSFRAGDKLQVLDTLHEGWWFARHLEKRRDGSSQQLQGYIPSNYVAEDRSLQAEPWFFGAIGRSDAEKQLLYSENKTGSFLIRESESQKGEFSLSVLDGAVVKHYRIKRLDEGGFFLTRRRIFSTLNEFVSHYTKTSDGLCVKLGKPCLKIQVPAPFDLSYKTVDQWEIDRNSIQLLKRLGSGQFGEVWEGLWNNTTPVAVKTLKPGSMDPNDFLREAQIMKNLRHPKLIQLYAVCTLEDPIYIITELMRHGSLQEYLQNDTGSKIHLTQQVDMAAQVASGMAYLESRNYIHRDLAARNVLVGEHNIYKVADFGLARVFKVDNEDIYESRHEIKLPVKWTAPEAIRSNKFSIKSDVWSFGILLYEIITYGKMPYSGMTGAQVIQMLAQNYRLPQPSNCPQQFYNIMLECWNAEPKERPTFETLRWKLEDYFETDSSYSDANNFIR
Chain of Protein-tyrosine kinase 2-beta (Q14289 whole entry): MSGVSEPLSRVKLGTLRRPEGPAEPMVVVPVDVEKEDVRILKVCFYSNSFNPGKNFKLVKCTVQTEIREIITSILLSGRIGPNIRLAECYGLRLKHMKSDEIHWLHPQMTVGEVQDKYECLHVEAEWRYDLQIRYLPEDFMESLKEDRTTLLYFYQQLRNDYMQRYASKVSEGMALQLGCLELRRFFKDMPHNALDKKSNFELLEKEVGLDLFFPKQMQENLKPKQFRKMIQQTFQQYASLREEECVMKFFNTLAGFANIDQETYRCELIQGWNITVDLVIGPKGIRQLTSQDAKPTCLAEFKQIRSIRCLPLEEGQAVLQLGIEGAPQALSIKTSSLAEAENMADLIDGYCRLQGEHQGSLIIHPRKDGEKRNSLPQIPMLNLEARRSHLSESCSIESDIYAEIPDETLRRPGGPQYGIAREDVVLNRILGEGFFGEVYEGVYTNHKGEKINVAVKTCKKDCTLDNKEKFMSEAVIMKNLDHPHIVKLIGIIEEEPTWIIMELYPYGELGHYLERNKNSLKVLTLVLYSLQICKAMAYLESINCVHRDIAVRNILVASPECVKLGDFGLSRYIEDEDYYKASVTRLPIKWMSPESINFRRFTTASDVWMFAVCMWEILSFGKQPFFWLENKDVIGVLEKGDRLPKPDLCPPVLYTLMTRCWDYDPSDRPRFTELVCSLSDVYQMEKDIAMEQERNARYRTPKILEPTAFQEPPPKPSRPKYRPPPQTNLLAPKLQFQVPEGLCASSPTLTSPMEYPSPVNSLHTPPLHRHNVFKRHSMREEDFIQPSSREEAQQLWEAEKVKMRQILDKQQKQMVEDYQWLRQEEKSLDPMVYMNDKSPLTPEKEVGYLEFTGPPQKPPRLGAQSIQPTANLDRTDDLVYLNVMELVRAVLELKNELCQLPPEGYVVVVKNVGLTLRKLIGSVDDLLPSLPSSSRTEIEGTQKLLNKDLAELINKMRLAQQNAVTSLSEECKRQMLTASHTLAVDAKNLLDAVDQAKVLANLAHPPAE
Chain of Ribosomal protein S6 kinase alpha-5 (O75582 whole entry): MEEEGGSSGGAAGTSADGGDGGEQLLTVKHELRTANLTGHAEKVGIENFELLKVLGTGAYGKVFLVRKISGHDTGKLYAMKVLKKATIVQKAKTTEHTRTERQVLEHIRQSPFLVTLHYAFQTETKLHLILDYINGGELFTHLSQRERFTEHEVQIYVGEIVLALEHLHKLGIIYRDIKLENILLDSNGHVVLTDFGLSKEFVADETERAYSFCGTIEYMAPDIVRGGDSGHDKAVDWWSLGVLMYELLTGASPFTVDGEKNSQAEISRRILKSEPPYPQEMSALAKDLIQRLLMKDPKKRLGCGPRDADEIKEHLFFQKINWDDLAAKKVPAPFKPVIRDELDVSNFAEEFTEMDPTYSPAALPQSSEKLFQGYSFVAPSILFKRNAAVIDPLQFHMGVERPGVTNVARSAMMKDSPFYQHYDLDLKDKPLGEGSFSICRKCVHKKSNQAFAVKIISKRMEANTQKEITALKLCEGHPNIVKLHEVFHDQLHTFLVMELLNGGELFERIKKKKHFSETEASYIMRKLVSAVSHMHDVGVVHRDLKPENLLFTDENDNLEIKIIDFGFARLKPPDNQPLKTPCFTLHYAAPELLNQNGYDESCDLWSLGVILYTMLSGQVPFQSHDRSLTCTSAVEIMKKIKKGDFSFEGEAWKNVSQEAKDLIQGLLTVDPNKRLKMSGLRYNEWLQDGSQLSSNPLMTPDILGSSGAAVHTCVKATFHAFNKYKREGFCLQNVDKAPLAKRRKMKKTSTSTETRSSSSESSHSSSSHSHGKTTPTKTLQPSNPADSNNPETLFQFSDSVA
Chain of STE20-like serine/threonine-protein kinase (Q9H2G2 whole entry): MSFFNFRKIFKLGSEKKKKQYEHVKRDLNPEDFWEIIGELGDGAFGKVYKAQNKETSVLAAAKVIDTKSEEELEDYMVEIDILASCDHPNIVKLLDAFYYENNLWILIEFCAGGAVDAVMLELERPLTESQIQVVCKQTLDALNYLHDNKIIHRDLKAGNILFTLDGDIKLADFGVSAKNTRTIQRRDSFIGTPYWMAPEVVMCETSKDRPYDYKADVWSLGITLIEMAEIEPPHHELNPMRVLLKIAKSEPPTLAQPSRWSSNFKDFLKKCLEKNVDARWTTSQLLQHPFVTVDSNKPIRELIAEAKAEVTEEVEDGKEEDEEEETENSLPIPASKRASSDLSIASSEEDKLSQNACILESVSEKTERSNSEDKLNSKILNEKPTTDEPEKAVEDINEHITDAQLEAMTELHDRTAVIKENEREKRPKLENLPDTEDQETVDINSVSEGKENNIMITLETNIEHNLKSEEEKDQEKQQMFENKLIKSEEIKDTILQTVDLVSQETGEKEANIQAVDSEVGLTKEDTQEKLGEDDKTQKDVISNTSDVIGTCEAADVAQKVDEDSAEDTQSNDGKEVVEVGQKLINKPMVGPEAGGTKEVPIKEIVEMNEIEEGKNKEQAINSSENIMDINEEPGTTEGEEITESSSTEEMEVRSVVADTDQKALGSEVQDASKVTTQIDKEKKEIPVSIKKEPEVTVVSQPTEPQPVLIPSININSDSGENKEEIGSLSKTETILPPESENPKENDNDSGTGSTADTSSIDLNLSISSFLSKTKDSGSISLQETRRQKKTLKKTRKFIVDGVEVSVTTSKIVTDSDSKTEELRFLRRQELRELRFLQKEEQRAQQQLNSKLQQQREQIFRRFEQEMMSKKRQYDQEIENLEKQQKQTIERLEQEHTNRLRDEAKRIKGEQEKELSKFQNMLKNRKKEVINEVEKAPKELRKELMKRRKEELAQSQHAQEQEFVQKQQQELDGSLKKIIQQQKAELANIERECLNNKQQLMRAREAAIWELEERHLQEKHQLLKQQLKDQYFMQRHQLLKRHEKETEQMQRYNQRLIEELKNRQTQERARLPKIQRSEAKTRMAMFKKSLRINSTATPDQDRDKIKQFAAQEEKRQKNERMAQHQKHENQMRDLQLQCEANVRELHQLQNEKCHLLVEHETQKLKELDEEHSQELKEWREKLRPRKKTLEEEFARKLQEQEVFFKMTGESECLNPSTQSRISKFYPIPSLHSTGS
Chain of Putative heat shock protein HSP 90-beta 2 (Q58FF8 whole entry, canonical isoform): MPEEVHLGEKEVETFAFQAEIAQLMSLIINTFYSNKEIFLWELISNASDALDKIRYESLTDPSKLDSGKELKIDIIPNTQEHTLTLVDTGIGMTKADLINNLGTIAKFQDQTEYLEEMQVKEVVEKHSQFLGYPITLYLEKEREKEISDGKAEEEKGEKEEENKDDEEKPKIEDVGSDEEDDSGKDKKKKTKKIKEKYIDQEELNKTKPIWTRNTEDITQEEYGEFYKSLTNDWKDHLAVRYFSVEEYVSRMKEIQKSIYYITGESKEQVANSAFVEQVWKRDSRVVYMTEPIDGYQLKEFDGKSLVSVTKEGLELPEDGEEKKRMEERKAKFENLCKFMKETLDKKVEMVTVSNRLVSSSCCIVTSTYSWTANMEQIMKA

O=c1sn(-c2cccc3ccccc23)c(=O)n1Cc1ccccc1 [TIDEGLUSIB]
inactive: [1] > 30 µM | [2] > 30 µM | [3] > 30 µM | [4] > 30 µM | [5] > 30 µM | [6] > 30 µM | [7] > 30 µM | [8] > 30 µM | [9] > 30 µM | [10] > 30 µM | [11] > 30 µM | [12] > 30 µM

CO[C@H]1C[C@@H]2CC[C@@H](C)[C@@](O)(O2)C(=O)C(=O)N2CCCC[C@H]2C(=O)O[C@H]([C@H](C)C[C@@H]2CC[C@@H](OCCO)[C@H](OC)C2)CC(=O)[C@H](C)/C=C(\C)[C@@H](O)[C@@H](OC)C(=O)[C@H](C)C[C@H](C)/C=C/C=C/C=C/1C [EVEROLIMUS]
inactive: [1] > 30 µM | [2] > 30 µM | [3] > 30 µM | [4] > 30 µM | [5] > 30 µM | [6] > 30 µM | [7] > 30 µM | [8] > 30 µM | [9] > 30 µM | [10] > 30 µM | [11] > 30 µM | [12] > 30 µM

CN(C)C(=O)c1cc2cnc(Nc3ccc(N4CCNCC4)cn3)nc2n1C1CCCC1 [RIBOCICLIB]
inactive: [1] > 30 µM | [2] > 30 µM | [3] > 30 µM | [4] > 30 µM | [5] > 30 µM | [6] > 30 µM | [7] > 30 µM | [8] > 30 µM | [9] > 30 µM | [10] > 30 µM | [11] > 30 µM | [12] > 30 µM

CC(C)Nc1cc(-c2c[nH]c(C(=O)N[C@H](CO)c3cccc(Cl)c3)c2)c(Cl)cn1 [ULIXERTINIB]
inactive: [1] > 30 µM | [2] > 30 µM | [3] > 30 µM | [4] > 30 µM | [5] > 30 µM | [6] > 30 µM | [7] > 30 µM | [8] > 30 µM | [9] > 30 µM | [10] > 30 µM | [11] > 30 µM | [12] > 30 µM
